According to patent publication US10138275B2, “Crystalline powder of cyclic peptide compound, preparation method for same, and uses thereof” (SHANGHAI TECHWELL BIOPHARMACEUTICAL CO., LTD, priority 2014, dated 2018):
Starred links: 1 amine or outer side, 2 acyl side, 3 side chain; linkers in the order of their positions; H or OH if unused. Positions of bridges follow the written chain, without caps; N, C: chain ends. Non-standard residues stand in square brackets, D forms with d. Residues, ends and D or L forms follow the SMILES beside them. *: point of attachment. hTyr(3S-OH,4S-OH,3'-OSO3H) = N[C@H](C(=O)O)[C@H](O)[C@@H](O)c1ccc(O)c(OS(=O)(=O)O)c1; Orn(4R-OH,5R-OH) = O=C([C@H](C[C@@H](O)[C@@H](O)N[*:3])N[*:1])[*:2]; Pro(3S-OH,4S-Me) = C[C@H]1CN[C@H](C(=O)O)[C@H]1O; X1 = CCCCCOc1ccc(-c2cc(-c3ccc(C(=O)*)cc3)no2)cc1; Gln(3R-OH) = NC(=O)C[C@@H](O)[C@H](N)C(=O)O; Hyp = O=C(O)[C@@H]1C[C@@H](O)CN1

How the values were obtained:
Format in all cases: physicochemical
[1] = Particle size distribution (d10, d50) by Malvern particle size analyzer / laser diffraction; conditions: after drying
Experimental: […] Wherein, d10 and d50 are means known for indicating the particle size distribution. d50 refers to a value of particle size, and the size of 50 vol/% of particles is smaller than said value. D10 refers to a value of particle size, and the size of 10 vol/% of particles is smaller than said value. The preferred method for determining d10 and d50 is laser diffraction, d50 of the crystalline powder of the compound of formula I according to the present invention is determined as 10-100 um, and d10 is determined as 1-9 um. Preferably, d50 of the crystalline powder is 20-50 um, and d10 thereof is 1-5 um. Before solid-liquid separation, d50 of the crystalline powder of the compound of formula I is 10-100 um, and d10 thereof is 1-9 um. Preferably, d50 of the crystalline powder is 20-50 um, and d10 thereof is 3-6 um.

[2] = Bulk density of powder by cylinder measurement; conditions: after drying
Experimental: “Bulk density of powder” is a measurement standard for the relative importance of the interaction between microparticles by comparing the bulk density and tapped density of the powder. Methods for measuring bulk density of powder are known in the art; for example, it can be determined by cylinder measurement, volumetric measurement, and container measurement. Bulk density of the crystalline powder of the compound of formula I according to the present invention is determined as less than 0.7 g/mL, preferably less than 0.6 g/mL, most preferably less than 0.5 g/mL, by cylinder measurement.

[3] = Ratio of dry weight to wet weight (Dry/Wet) of filtered solids; conditions: wet solids weighed after filtration, before drying
From the text: As used herein, the term “Dry/Wet” and “ratio of dry weight to wet weight” can be used interchangeably, both of which refer to the ratio of the weight of a compound without solvent(s) to the weight of the compound with solvent(s). In the present invention, wet weight of crystals is obtained by filtering the crystallized solids until no noticeable droplet outflows and weighing the solids.

[4] = Vacuum-drying at 25° C. with a water system until no organic solvent detected by GC; purity by HPLC; conditions: for time Needed (for drying): 25° C., vacuum-drying with a water system until no organic solvent detected by GC; for Purity before drying / Purity after drying: HPLC; for Purity before drying: 5 g of solids; for Purity after drying: vacuum-dried at 25° C. with a water system until no organic solvent detected by GC
From the text: High performance liquid chromatography (HPLC) is a common method for determining the purity of a compound, wherein a liquid is used as the mobile phase and a high-pressure transfusion system is used for pumping the mobile phase, such as single solvents with different polarities, a mixture of solvents at different proportions, or buffers, into a column packed with a stationary phase. Each component is separated in the column, and then enters into a detector for detection, thereby analyzing a sample. In the present invention, HPLC is used for determining the purity of the compound of formula I and studying the stability of a sample. Conditions of the HPLC method are listed as follows:
Analysis Column: YMC-ODS 250×4.6 mm, 5 μm;
Mobile phase: acetonitrile:phosphate buffer (pH 3.0)=45:70;
Column temperature: 35° C.;
Diluent: aqueous phosphate buffer;
Detection wavelength: 210 nm;
Gas chromatography (GC) used to separate and measure trace impurities in a compound is an accurate, qualitative and quantitative method of analysis. In the present invention, the content of organic solvents in the crystalline powder of the compound of formula I obtained in the present invention is measured by gas chromatography (GC).
5 g of solids were prepared according to the methods of Examples 2-10 and Comparative Examples 1-3 respectively, placed at 25° C., and vacuum-dried together with a water system until no organic solvent was detected through GC. The time for drying was compared, and the purity of the sample was analyzed.

SMILES	d10, particle size of the crystalline powder [1] [um]	d50, particle size of the crystalline powder [1] [um]	Bulk density [2] [g/mL]	ratio of dry weight to wet weight (Dry/Wet) [3]	time Needed (for drying) [4] [h]	Purity before drying [4] [%]	Purity after drying [4] [%]
CCCCCOc1ccc(-c2cc(-c3ccc(C(=O)N[C@H]4C[C@@H](O)[C@@H](O)NC(=O)[C@@H]5[C@@H](O)[C@@H](C)CN5C(=O)[C@H]([C@H](O)CC(N)=O)NC(=O)[C@H]([C@H](O)[C@@H](O)c5ccc(O)c(OS(=O)(=O)[O-])c5)NC(=O)[C@@H]5C[C@@H](O)CN5C(=O)[C@H]([C@@H](C)O)NC4=O)cc3)no2)cc1.[Na+] [Example 4] (X1-[Orn(4R-OH,5R-OH)]T[Hyp][hTyr(3S-OH,4S-OH,3'-OSO3H)][Gln(3R-OH)][Pro(3S-OH,4S-Me)]; lactam 1-C)	5.1	50	0.55	0.61	9	99.64	99.64
CCCCCOc1ccc(-c2cc(-c3ccc(C(=O)N[C@H]4C[C@@H](O)[C@@H](O)NC(=O)[C@@H]5[C@@H](O)[C@@H](C)CN5C(=O)[C@H]([C@H](O)CC(N)=O)NC(=O)[C@H]([C@H](O)[C@@H](O)c5ccc(O)c(OS(=O)(=O)[O-])c5)NC(=O)[C@@H]5C[C@@H](O)CN5C(=O)[C@H]([C@@H](C)O)NC4=O)cc3)no2)cc1.[Na+] [Example 8] (X1-[Orn(4R-OH,5R-OH)]T[Hyp][hTyr(3S-OH,4S-OH,3'-OSO3H)][Gln(3R-OH)][Pro(3S-OH,4S-Me)]; lactam 1-C)	2.6	18.7	0.38	0.45	6	99.52	99.46
CCCCCOc1ccc(-c2cc(-c3ccc(C(=O)N[C@H]4C[C@@H](O)[C@@H](O)NC(=O)[C@@H]5[C@@H](O)[C@@H](C)CN5C(=O)[C@H]([C@H](O)CC(N)=O)NC(=O)[C@H]([C@H](O)[C@@H](O)c5ccc(O)c(OS(=O)(=O)[O-])c5)NC(=O)[C@@H]5C[C@@H](O)CN5C(=O)[C@H]([C@@H](C)O)NC4=O)cc3)no2)cc1.[Na+] [Example 5] (X1-[Orn(4R-OH,5R-OH)]T[Hyp][hTyr(3S-OH,4S-OH,3'-OSO3H)][Gln(3R-OH)][Pro(3S-OH,4S-Me)]; lactam 1-C)	9	97.7	0.6	0.66	10	99.52	99.47
CCCCCOc1ccc(-c2cc(-c3ccc(C(=O)N[C@H]4C[C@@H](O)[C@@H](O)NC(=O)[C@@H]5[C@@H](O)[C@@H](C)CN5C(=O)[C@H]([C@H](O)CC(N)=O)NC(=O)[C@H]([C@H](O)[C@@H](O)c5ccc(O)c(OS(=O)(=O)[O-])c5)NC(=O)[C@@H]5C[C@@H](O)CN5C(=O)[C@H]([C@@H](C)O)NC4=O)cc3)no2)cc1.[Na+] [Example 3] (X1-[Orn(4R-OH,5R-OH)]T[Hyp][hTyr(3S-OH,4S-OH,3'-OSO3H)][Gln(3R-OH)][Pro(3S-OH,4S-Me)]; lactam 1-C)	3.7	43.1	0.43	0.52	6.5	99.63	99.61
CCCCCOc1ccc(-c2cc(-c3ccc(C(=O)N[C@H]4C[C@@H](O)[C@@H](O)NC(=O)[C@@H]5[C@@H](O)[C@@H](C)CN5C(=O)[C@H]([C@H](O)CC(N)=O)NC(=O)[C@H]([C@H](O)[C@@H](O)c5ccc(O)c(OS(=O)(=O)[O-])c5)NC(=O)[C@@H]5C[C@@H](O)CN5C(=O)[C@H]([C@@H](C)O)NC4=O)cc3)no2)cc1.[Na+] [Example 6] (X1-[Orn(4R-OH,5R-OH)]T[Hyp][hTyr(3S-OH,4S-OH,3'-OSO3H)][Gln(3R-OH)][Pro(3S-OH,4S-Me)]; lactam 1-C)	–	48.7	0.49	0.6	8.5	99.61	99.6
CCCCCOc1ccc(-c2cc(-c3ccc(C(=O)N[C@H]4C[C@@H](O)[C@@H](O)NC(=O)[C@@H]5[C@@H](O)[C@@H](C)CN5C(=O)[C@H]([C@H](O)CC(N)=O)NC(=O)[C@H]([C@H](O)[C@@H](O)c5ccc(O)c(OS(=O)(=O)[O-])c5)NC(=O)[C@@H]5C[C@@H](O)CN5C(=O)[C@H]([C@@H](C)O)NC4=O)cc3)no2)cc1.[Na+] [Example 10] (X1-[Orn(4R-OH,5R-OH)]T[Hyp][hTyr(3S-OH,4S-OH,3'-OSO3H)][Gln(3R-OH)][Pro(3S-OH,4S-Me)]; lactam 1-C)	8.3	100	0.56	0.63	9	99.5	99.43
CCCCCOc1ccc(-c2cc(-c3ccc(C(=O)N[C@H]4C[C@@H](O)[C@@H](O)NC(=O)[C@@H]5[C@@H](O)[C@@H](C)CN5C(=O)[C@H]([C@H](O)CC(N)=O)NC(=O)[C@H]([C@H](O)[C@@H](O)c5ccc(O)c(OS(=O)(=O)[O-])c5)NC(=O)[C@@H]5C[C@@H](O)CN5C(=O)[C@H]([C@@H](C)O)NC4=O)cc3)no2)cc1.[Na+] [Example 2] (X1-[Orn(4R-OH,5R-OH)]T[Hyp][hTyr(3S-OH,4S-OH,3'-OSO3H)][Gln(3R-OH)][Pro(3S-OH,4S-Me)]; lactam 1-C)	3	31.9	0.45	0.45	7	99.68	99.68
CCCCCOc1ccc(-c2cc(-c3ccc(C(=O)N[C@H]4C[C@@H](O)[C@@H](O)NC(=O)[C@@H]5[C@@H](O)[C@@H](C)CN5C(=O)[C@H]([C@H](O)CC(N)=O)NC(=O)[C@H]([C@H](O)[C@@H](O)c5ccc(O)c(OS(=O)(=O)[O-])c5)NC(=O)[C@@H]5C[C@@H](O)CN5C(=O)[C@H]([C@@H](C)O)NC4=O)cc3)no2)cc1.[Na+] [Example 9] (X1-[Orn(4R-OH,5R-OH)]T[Hyp][hTyr(3S-OH,4S-OH,3'-OSO3H)][Gln(3R-OH)][Pro(3S-OH,4S-Me)]; lactam 1-C)	1.3	20	0.54	0.62	8.5	99.42	99.38
